Test system: P12-Ichikawa
Assay: cell viability relative to DMSO control; higher = less cytotoxic
Conditions: 48 h
Procedure, shortened: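 Cells were incubated for 48 h at 37°C before CellTiter-Glo One luminescence was read. The cells were NOMO1 or SEM (500 cells/well) or P12-Ichikawa (1000 cells/well) leukemia cells, adapted for at least four passages in each medium and seeded in 1536-well plates (5 μl). Dosing used library compounds in DMSO applied by pin over 11 threefold points, 47 μM to 0.79 nM. Viability is the per-plate percentage of DMSO wells, with cell-free wells as background.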

[1] = HPLM + 10% dialyzed FBS, 0.000781 µM
[2] = HPLM + 10% dialyzed FBS, 0.00234 µM
[3] = HPLM + 10% dialyzed FBS, 0.00702 µM
[4] = HPLM + 10% dialyzed FBS, 0.0211 µM
[5] = HPLM + 10% dialyzed FBS, 0.0632 µM
[6] = HPLM + 10% dialyzed FBS, 0.19 µM
[7] = HPLM + 10% dialyzed FBS, 0.569 µM
[8] = HPLM + 10% dialyzed FBS, 1.71 µM
[9] = HPLM + 10% dialyzed FBS, 5.12 µM
[10] = HPLM + 10% dialyzed FBS, 15.4 µM
[11] = HPLM + 10% dialyzed FBS, 46.1 µM
[12] = RPMI 5 mM glucose + 10% FBS, 0.000781 µM
[13] = RPMI 5 mM glucose + 10% FBS, 0.00234 µM
[14] = RPMI 5 mM glucose + 10% FBS, 0.00702 µM
[15] = RPMI 5 mM glucose + 10% FBS, 0.0211 µM
[16] = RPMI 5 mM glucose + 10% FBS, 0.0632 µM
[17] = RPMI 5 mM glucose + 10% FBS, 0.19 µM
[18] = RPMI 5 mM glucose + 10% FBS, 0.569 µM
[19] = RPMI 5 mM glucose + 10% FBS, 1.71 µM
[20] = RPMI 5 mM glucose + 10% FBS, 5.12 µM
[21] = RPMI 5 mM glucose + 10% FBS, 15.4 µM
[22] = RPMI 5 mM glucose + 10% FBS, 46.1 µM
[23] = RPMI 5 mM glucose + 10% dialyzed FBS, 0.000781 µM
[24] = RPMI 5 mM glucose + 10% dialyzed FBS, 0.00234 µM
[25] = RPMI 5 mM glucose + 10% dialyzed FBS, 0.00702 µM
[26] = RPMI 5 mM glucose + 10% dialyzed FBS, 0.0211 µM
[27] = RPMI 5 mM glucose + 10% dialyzed FBS, 0.0632 µM
[28] = RPMI 5 mM glucose + 10% dialyzed FBS, 0.19 µM
[29] = RPMI 5 mM glucose + 10% dialyzed FBS, 0.569 µM
[30] = RPMI 5 mM glucose + 10% dialyzed FBS, 1.71 µM
[31] = RPMI 5 mM glucose + 10% dialyzed FBS, 5.12 µM
[32] = RPMI 5 mM glucose + 10% dialyzed FBS, 15.4 µM
[33] = RPMI 5 mM glucose + 10% dialyzed FBS, 46.1 µM

| SMILES | cell viability [1] [%] | cell viability [2] [%] | cell viability [3] [%] | cell viability [4] [%] | cell viability [5] [%] | cell viability [6] [%] | cell viability [7] [%] | cell viability [8] [%] | cell viability [9] [%] | cell viability [10] [%] | cell viability [11] [%] | cell viability [12] [%] | cell viability [13] [%] | cell viability [14] [%] | cell viability [15] [%] | cell viability [16] [%] | cell viability [17] [%] | cell viability [18] [%] | cell viability [19] [%] | cell viability [20] [%] | cell viability [21] [%] | cell viability [22] [%] | cell viability [23] [%] | cell viability [24] [%] | cell viability [25] [%] | cell viability [26] [%] | cell viability [27] [%] | cell viability [28] [%] | cell viability [29] [%] | cell viability [30] [%] | cell viability [31] [%] | cell viability [32] [%] | cell viability [33] [%] |
| --- | --- | --- | --- | --- | --- | --- | --- | --- | --- | --- | --- | --- | --- | --- | --- | --- | --- | --- | --- | --- | --- | --- | --- | --- | --- | --- | --- | --- | --- | --- | --- | --- | --- |
| CCOC(=O)C(C)OC1=CC=CC2=C1\C=C/N(CC(=O)NC3=CC=C4OCCOC4=C3)C2=O (stereo not drawn) | 89.3 | 97.6 | 97.9 | 53.9 | 101 | 106 | 95.5 | 97.5 | 90.5 | 101 | 108 | 89.6 | 97.6 | 97.9 | 91.7 | 98.6 | 103 | 103 | 91.2 | 87.2 | 111 | 108 | 88.6 | 88.2 | 91.5 | 88.5 | 85.7 | 98.2 | 92.2 | 89.8 | 90.4 | 92.5 | 101 |
| C=CC(=O)Nc1cc2c(Nc3ccc(F)c(Cl)c3)ncnc2cc1OCCCN1CCOCC1 | 124 | 132 | 119 | 120 | 118 | 122 | 113 | 109 | 94.3 | 67.2 | 53.1 | 117 | 124 | 125 | 126 | 111 | 110 | 118 | 110 | 93.5 | 73.6 | 89.8 | 134 | 122 | 119 | 126 | 126 | 128 | 127 | 108 | 96.4 | 91.6 | 100 |
| NC(=O)c1ccc(N(C(N)=O)c2c(F)cccc2F)nc1-c1ccc(F)cc1F | 101 | 101 | 105 | 101 | 107 | 102 | 106 | 101 | 108 | 95.3 | 104 | 101 | 97.1 | 100 | 98.7 | 108 | 94.7 | 109 | 95.6 | 98.5 | 88.7 | 96.3 | 94.9 | 96.1 | 99 | 102 | 100 | 92.1 | 91 | 92.7 | 91.2 | 87.5 | 88.6 |
| NC[C@H]1O[C@H](O[C@@H]2[C@H](O)[C@@H](O[C@H]3O[C@H](CO)[C@@H](O)[C@H](N)[C@H]3O)[C@H](N)C[C@@H]2N)[C@H](O)[C@@H](O)[C@@H]1O | 126 | 124 | 124 | 107 | 120 | 121 | 117 | 121 | 112 | 104 | 107 |  |  |  |  |  |  |  |  |  |  |  |  |  |  |  |  |  |  |  |  |  |  |
| Cc1cc2c(C(N)=O)cccc2n1-c1nc2c(c(NCc3ccccc3)n1)COCC2 | 99.5 | 92.4 | 92.2 | 93.2 | 99.8 | 89.6 | 78.4 | 85.9 | 2.18 | 2.06 | 3.98 | 99.6 | 96.2 | 95.5 | 93.8 | 91.2 | 94.6 | 81.7 | 63.1 | 2.37 | 1.97 | 2.61 | 95.9 | 94.4 | 95.6 | 97.7 | 96.3 | 95.4 | 91.8 | 72.9 | 2.73 | 2.42 | 2.96 |
| COC1=CC=C(C(=C1)OC(C)C)C/2=N/[C@@H]([C@@H](N2C(=O)N3CCNC(=O)C3)C4=CC=C(Cl)C=C4)C5=CC=C(Cl)C=C5 | 108 | 113 | 115 | 108 | 109 | 111 | 108 | 102 | 76 | 37.1 | 12.1 | 122 | 125 | 127 | 119 | 116 | 118 | 106 | 111 | 97.2 | 52 | 49.6 | 122 | 119 | 116 | 117 | 125 | 113 | 112 | 110 | 88.3 | 41.5 | 27.8 |
| CN(C)CC(C)(C)CNc1nn2c(-c3ccccc3)nnc2cc1C1CCC1 | 106 | 103 | 110 | 111 | 112 | 110 | 94.9 | 111 | 84.2 | 33.9 | 6.88 | 108 | 111 | 104 | 102 | 109 | 106 | 87.8 | 105 | 70.3 | 46.7 | 6.32 | 105 | 111 | 107 | 111 | 113 | 115 | 98.3 | 113 | 88.1 | 76.9 | 13.6 |
| O=P(O)(O)C(O)(Cn1ccnc1)P(=O)(O)O | 97.2 | 111 | 64 | 114 | 111 | 122 | 121 | 119 | 125 | 112 | 117 | 109 | 122 | 70.9 | 126 | 131 | 134 | 136 | 137 | 137 | 136 | 125 | 101 | 108 | 67.8 | 111 | 114 | 120 | 116 | 114 | 112 | 122 | 118 |
| Nc1ncnc2c1ncn2[C@@H]1O[C@H](CO)C[C@H]1O | 92.5 | 96.4 | 92.8 | 93.1 | 98.8 | 94.1 | 93.1 | 88.8 | 92.2 | 89.3 | 89 | 87.9 | 104 | 94 | 94.4 | 87.7 | 96 | 93 | 93.5 | 85.3 | 86.8 | 87.6 | 83.8 | 90.1 | 97.7 | 90.9 | 87.4 | 91.2 | 94.5 | 87.6 | 86.1 | 89.6 | 92.3 |
| CNCC[C@H](Oc1cccc2ccccc12)c1cccs1 | 109 | 116 | 111 | 113 | 109 | 96.2 | 112 | 108 | 105 | 95.8 | 25.1 | 126 | 119 | 124 | 120 | 121 | 119 | 112 | 118 | 119 | 111 | 81 | 107 | 115 | 112 | 119 | 105 | 116 | 111 | 105 | 105 | 98.6 | 58 |

Reference: the supplement of paper PMC11451515
